“Also recorded” adds a separate entry of the source.
Key:
[1] = tested on: murine optic nerves; test: PPD staining and electron microscopy of optic nerve sections, cuprizone demyelination and remyelination after OPC transplant; assay type: in vivo, mice
Protocol: (§1) Cuprizone is a copper chelator, which causes apoptosis of mature oligodendroglia, followed by microglial recruitment, and phagocytosis of myelin. Demyelination was induced by feeding mice a diet containing 0.3% cuprizone for 9 weeks. […] Peak demyelination occurred at 6-7 weeks with spontaneous remyelination occurring 2-4 weeks after transition to regular diet. Efficacy of OPC transplants upon reintroduction of regular diet was evaluated. Assessment of remyelination following transplant was performed as described elsewhere (Deb et al., PLoS One, 5:e12478 (2010)). Briefly, semi-thin sections of optic nerves were stained with para-phenylenediamine, imaged at 100× magnification following a predetermined sampling scheme, and analyzed using automated ImageJ macros to measure myelinated fibers.
For collection of optic nerves and brain tissue, mice were perfused with 4% paraformaldehyde or Trump's fixative, and CNS tissues were post-fixed in the respective solution for 24 hours.
Cuprizone is a copper chelator that causes apoptosis of mature oligodendroglia, followed by microglial recruitment and phagocytosis of myelin. Demyelination was induced by feeding mice a diet containing 0.3% cuprizone for 9 weeks. […] Peak demyelination occurs at 6-7 weeks with spontaneous remyelination occurring 2-4 weeks after transition to regular diet. […] Optical coherence tomography (OCT) provided quantitative assessment of neuroretinal integrity. The retinal layers measured along the green line in FIG. 4E in a healthy mouse (FIG. 4F). Note the clear retinal nerve fiber layer (RNFL), as outlined in FIG. 4H. The retinal layers measured along the yellow line in FIG. 4E in a healthy mouse (FIG. 4G). Note the thick ganglion cell layer (GCL), as outlined in FIG. 4H. Head mount surgery for placement of VEP electrodes and recording locations (FIG. 4I-K). Visual evoked potentials (VEPs) measured in the visual cortex induced by a 0.3 Hz light pulse (FIG. 4L). […] VEP averaging is used to establish measurements of evoked potential amplitude, latency, and pulse width (FIG. 4M). […]

[2] = tested on: murine optic nerves; settings: mice on diet containing 0.3% cuprizone; cited from earlier work
[3] = tested on: optic nerve of cuprizone-fed mice; test: Visual evoked potentials (VEP) in cuprizone-fed mice with or without OPC transplant; assay type: in vivo
Protocol: as §1
Maintaining a sterile field, 1.0 μL of media containing >10^4 OPCs were injected into the vitreous humor of anesthetized mice, using a custom 34-gauge needle mounted on a 5 μL Hamilton syringe. Despite the small dimensions of the murine eye and the high needle gauge, OPCs were consistently and reproducibly delivered into the vitreous cavity with this method, and transferred cells were imaged using fluorescent fundus imaging of the mouse eye (evidence from >30 mice; data not included) (FIG. 6A).
To measure the functional outcomes of OPC transplantation, VEPs were recorded. Intracranial supradural screw electrodes (plastics1.com 8L0X3905201F) were implanted over the visual cortex as described elsewhere (Deb et al., (2010) PLoS One 5:e12478) (FIG. 4I-4K). After dark adaptation, mice were placed in a recording chamber connected to a recording system (8200-K1-SE3, Pinnacle Technology) using an implanted EEG headmount (8235-SM, Pinnacle Tech) tethered to a preamplifier (8202-SE3, Pinnacle Tech) and an analog-to-digital converter. Mice were visually stimulated by an on-axis flashing LED. VEPs were recorded with varying stimulus blocks from 0.1 Hz to 1000 Hz (controlled via a programmable Arduino Diecimila). Recording parameters measured latency to N1 (the first negative peak following stimulation), amplitude range between Nmax-Pmax (first positive peak after stimulation), number of stimuli not followed by a response, duration of visual evoked response, pulse width of Pmax. Any delay in conduction velocity through the optic nerve increased time to N1, whereas axonal degeneration led to decrease in amplitude range, and an increase in response duration as well as increased pulse width due to non-synchronous firing of neurons, providing a very sensitive measure of optic nerve function.
Mice were subjected to electrode implantation surgery and either received OPC transplant or served as controls (FIGS. 7A-C), and visual evoked potential (VEP) averaging was used to establish measurements of evoked potential amplitude, latency, and peak pulse-width (FIG. 7D). Representative waveforms of VEP recordings in a healthy control animal (FIG. 7E), cuprizone-fed animal (FIG. 7F), and cuprizone-fed animal transplanted with OPCs (FIG. 7G). Latency was measured as the time from the visual stimulus to the first negative peak in the VEP impulse (FIG. 7H). An increased latency indicated decreased conduction velocity as a result of loss of myelin and Nodes of Ranvier. […] Peak width was measured as the duration of the first positive impulse at half-maximum amplitude. […]

[4] = 0.3 Hz stimulation frequency, cuprizone-fed animal compared to regular diet (FIG. 4N)

Structure (SMILES): O=C(NN=C1CCCCC1)C(=O)NN=C1CCCCC1 [cuprizone]
- optic nerve myelination, PPD staining of semi-thin sections ([1]; after 6 weeks of cuprizone treatment): profound demyelination
- optic nerve myelination, PPD staining of semi-thin sections ([1]; after 9 weeks of cuprizone treatment): profound demyelination
- myelin layers in electron micrographs of thin optic nerve cross sections ([1]; cuprizone-treated animals, no transplant): thinning and disorganization of myelin layers; also recorded: thinning, and disorganization of myelin layers
- time of peak demyelination [2]: 6-7 weeks
- failure to transmit impulses in VEP recording [3, 4]: increased failure to transmit impulses
- latency to N1 in VEP recording from visual cortex [3, 4]: increased latency to N1
- average latency (time from visual stimulus to first negative peak in the VEP impulse) ([3]; after cuprizone treatment for nine weeks, no transplant, healthy baseline 276 ms, n=5): 371 ms
- peak width, shortest half for peak width values ([3]; after demyelination with cuprizone, no transplant, n=5): increased
- number of missed responses ([3]; cuprizone-fed animals, no transplant, n=5): greatly increased

Reference: patent US20240075073A1, “TREATING OPTIC NEURITIS WITH INDUCED PLURIPOTENT STEM CELL-DERIVED OLIGODENDROCYTE PRECURSOR CELLS” (Mayo Foundation for Medical Education and Research, priority 2016, published 2024)
